Laboratory results as given in patent publication US20070027175A1, “Antineoplastic activities of ellipticine and its derivatives” (priority 2005, published 2007).
Like-named read-outs stand apart in the source and are kept apart here.

What was measured:
[1] = tested on: RPMI8226 myeloma cell line; test: CellTiter-Glo luminescent cell viability assay, RPMI8226; type: cell-based, human; parameters: unit of the concentration uncertain
Procedure: (§1) The dosage of each derivative was set at 2, 0.2 and 0.02 mM. A cell culture medium control and 0.5% DMSO control was maintained in each experiment. The cell viability was tested each day over a period of five days using the CellTiter-Glo luminescent cell viability assay kit from Promega Co.
Cell Titer-Glo luminescent cell viability assay kit from Promega Co (Madison, Wis.) was used to determine cell growth inhibition by the various compounds tested. The kit determines cell viability by quantifying the amount of ATP present in the cell culture medium. Presence of ATP signals the presence of metabolically active cells (3). The intensity of luminescence was measured by a computerized luminometer (Promega, Co. Madison, Wis.). Each well was read five times within 30 minutes of adding Cell Titer-Glo reagent mixture. […]

[2] = tested on: U266 myeloma cell line; parameters: cell viability (CellTiter-Glo luminescent assay): dose or concentration left out as unconfirmed; details: U266
Procedure: as §1
U266 cell line was one of 12 myeloma cell lines used in screening of anti-myeloma agents. In FIG. 10A, cells were treated with 14 ellipticine derivatives (0.5 mM) obtained from the DTP; control cells were untreated. Ellipticine derivatives are coded with NSC identifiers. For 5 days, cell viability was measured every 24 hours using CellTiter-Glo Luminescent Assay. […] In FIG. 10B, U266 cells, along with six other myeloma cell lines, were co-cultured in direct contact with human fetal bone mesenchymal cells and treated with EPED3 (0.5 mM and 2 mM) or Velcade (0.5 mM); control cells were untreated. Cell proliferation was assessed by MTT assay every 24 hours for 5 days. […] Error bars indicate standard deviation.
(§2) Cell Titer-Glo luminescent cell viability assay kit from Promega Co (Madison, Wis.) was used to determine cell growth inhibition by the various compounds tested. The kit determines cell viability by quantifying the amount of ATP present in the cell culture medium. Presence of ATP signals the presence of metabolically active cells (3). The intensity of luminescence was measured by a computerized luminometer (Promega, Co. Madison, Wis.). Each well was read five times within 30 minutes of adding Cell Titer-Glo reagent mixture.
(§3) Cells were contacted with the antineoplastic agents in ninety six well culture plates. The concentration of each neoplastic agent was maintained a constant. A cell culture medium control and 0.5% DMSO control were maintained in each set of experiments. The cell viability was tested every day using the CellTiter-Glo luminescent cell viability kit from Promega Co. (Madison, Wis.) for a period of five days.

[3] = tested on: CAG myeloma cell line; test: CellTiter-Glo luminescent cell viability assay, CAG; type: cell-based, human; parameters: unit of the concentration uncertain
Procedure: as §1, §2, §3

[4] = tested on: Ark myeloma cell line; test: CellTiter-Glo luminescent cell viability assay, Ark; type: cell-based, human; parameters: unit of the concentration uncertain
Procedure: as §1, §2, §3

[5] = tested on: NCI-60 cancer panel; details: average across the cell lines of the concentration at which growth is inhibited 50%; unit in the High Conc. footnote; cited from earlier work

SMILES: Cc1c2ccncc2c(C)c2c1[nH]c1ccccc12 [Ellipticine, 5,11-Dimethyl-6H-Pyridol[4,3]carbazole]
- cell viability (CellTiter-Glo luminescent assay) ([1]; 0.02 (unit uncertain), Day 1): 110,290
- cell viability (CellTiter-Glo luminescent assay) ([1]; 0.02 (unit uncertain), Day 2): 244,140
- cell viability (CellTiter-Glo luminescent assay) ([1]; 0.02 (unit uncertain), Day 3): 390,151
- cell viability (CellTiter-Glo luminescent assay) ([1]; 0.02 (unit uncertain), Day 4): 898,067
- cell viability (CellTiter-Glo luminescent assay) ([1]; 0.02 (unit uncertain), Day 5): 966,857
- cell viability (CellTiter-Glo luminescent assay) ([1]; 0.2 (unit uncertain), Day 1): 107,014
- cell viability (CellTiter-Glo luminescent assay) ([1]; 0.2 (unit uncertain), Day 2): 235,145
- cell viability (CellTiter-Glo luminescent assay) ([1]; 0.2 (unit uncertain), Day 3): 355,794
- cell viability (CellTiter-Glo luminescent assay) ([1]; 0.2 (unit uncertain), Day 4): 774,806
- cell viability (CellTiter-Glo luminescent assay) ([1]; 0.2 (unit uncertain), Day 5): 921,077
- cell viability (CellTiter-Glo luminescent assay) ([1]; 2 (unit uncertain), Day 1): 87,440
- cell viability (CellTiter-Glo luminescent assay) ([1]; 2 (unit uncertain), Day 2): 115,263
- cell viability (CellTiter-Glo luminescent assay) ([1]; 2 (unit uncertain), Day 3): 110,776
- cell viability (CellTiter-Glo luminescent assay) ([1]; 2 (unit uncertain), Day 4): 126,944
- cell viability (CellTiter-Glo luminescent assay) ([1]; 2 (unit uncertain), Day 5): 85,699
- cell viability (CellTiter-Glo luminescent assay) ([2]; 0.02, Day 1): 31,950
- cell viability (CellTiter-Glo luminescent assay) ([2]; 0.02, Day 2): 47,812
- cell viability (CellTiter-Glo luminescent assay) ([2]; 0.02, Day 3): 66,571
- cell viability (CellTiter-Glo luminescent assay) ([2]; 0.02, Day 4): 115,083
- cell viability (CellTiter-Glo luminescent assay) ([2]; 0.02, Day 5): 152,839
- cell viability (CellTiter-Glo luminescent assay) ([2]; 0.2, Day 1): 32,490
- cell viability (CellTiter-Glo luminescent assay) ([2]; 0.2, Day 2): 47,622
- cell viability (CellTiter-Glo luminescent assay) ([2]; 0.2, Day 3): 62,648
- cell viability (CellTiter-Glo luminescent assay) ([2]; 0.2, Day 4): 106,989
- cell viability (CellTiter-Glo luminescent assay) ([2]; 0.2, Day 5): 132,439
- cell viability (CellTiter-Glo luminescent assay) ([2]; 2, Day 1): 23,680
- cell viability (CellTiter-Glo luminescent assay) ([2]; 2, Day 2): 31,682
- cell viability (CellTiter-Glo luminescent assay) ([2]; 2, Day 3): 33,129
- cell viability (CellTiter-Glo luminescent assay) ([2]; 2, Day 4): 40,656
- cell viability (CellTiter-Glo luminescent assay) ([2]; 2, Day 5): 38,403
- cell viability (CellTiter-Glo luminescent assay) ([3]; 0.02 (unit uncertain), Day 1): 200,429
- cell viability (CellTiter-Glo luminescent assay) ([3]; 0.02 (unit uncertain), Day 2): 557,030
- cell viability (CellTiter-Glo luminescent assay) ([3]; 0.02 (unit uncertain), Day 3): 1,243,718
- cell viability (CellTiter-Glo luminescent assay) ([3]; 0.02 (unit uncertain), Day 4): 2,718,974
- cell viability (CellTiter-Glo luminescent assay) ([3]; 0.02 (unit uncertain), Day 5): 4,443,641
- cell viability (CellTiter-Glo luminescent assay) ([3]; 0.2 (unit uncertain), Day 1): 196,263
- cell viability (CellTiter-Glo luminescent assay) ([3]; 0.2 (unit uncertain), Day 2): 541,300
- cell viability (CellTiter-Glo luminescent assay) ([3]; 0.2 (unit uncertain), Day 3): 1,117,650
- cell viability (CellTiter-Glo luminescent assay) ([3]; 0.2 (unit uncertain), Day 4): 2,568,444
- cell viability (CellTiter-Glo luminescent assay) ([3]; 0.2 (unit uncertain), Day 5): 4,443,292
- cell viability (CellTiter-Glo luminescent assay) ([3]; 2 (unit uncertain), Day 1): 136,450
- cell viability (CellTiter-Glo luminescent assay) ([3]; 2 (unit uncertain), Day 2): 200,722
- cell viability (CellTiter-Glo luminescent assay) ([3]; 2 (unit uncertain), Day 3): 234,414
- cell viability (CellTiter-Glo luminescent assay) ([3]; 2 (unit uncertain), Day 4): 308,480
- cell viability (CellTiter-Glo luminescent assay) ([3]; 2 (unit uncertain), Day 5): 281,302
- cell viability (CellTiter-Glo luminescent assay) ([4]; 0.02 (unit uncertain), Day 1): 120,709
- cell viability (CellTiter-Glo luminescent assay) ([4]; 0.02 (unit uncertain), Day 2): 208,608
- cell viability (CellTiter-Glo luminescent assay) ([4]; 0.02 (unit uncertain), Day 3): 268,420
- cell viability (CellTiter-Glo luminescent assay) ([4]; 0.02 (unit uncertain), Day 4): 802,063
- cell viability (CellTiter-Glo luminescent assay) ([4]; 0.02 (unit uncertain), Day 5): 1,049,792
- cell viability (CellTiter-Glo luminescent assay) ([4]; 0.2 (unit uncertain), Day 1): 125,251
- cell viability (CellTiter-Glo luminescent assay) ([4]; 0.2 (unit uncertain), Day 2): 230,950
- cell viability (CellTiter-Glo luminescent assay) ([4]; 0.2 (unit uncertain), Day 3): 331,985
- cell viability (CellTiter-Glo luminescent assay) ([4]; 0.2 (unit uncertain), Day 4): 877,082
- cell viability (CellTiter-Glo luminescent assay) ([4]; 0.2 (unit uncertain), Day 5): 1,183,902
- cell viability (CellTiter-Glo luminescent assay) ([4]; 2 (unit uncertain), Day 1): 86,010
- cell viability (CellTiter-Glo luminescent assay) ([4]; 2 (unit uncertain), Day 2): 98,439
- cell viability (CellTiter-Glo luminescent assay) ([4]; 2 (unit uncertain), Day 3): 70,824
- cell viability (CellTiter-Glo luminescent assay) ([4]; 2 (unit uncertain), Day 4): 44,913
- cell viability (CellTiter-Glo luminescent assay) ([4]; 2 (unit uncertain), Day 5): 10,996

SMILES: C[C@@H]1C[C@@H]2OC(=O)[C@]3(C)[C@H]2[C@@H](OC3(C)O)[C@]2(C)C(=O)C=C[C@@H]12 (stereo partly drawn) [NSC 19942, Tenulin]
- Mean GI50 [5]: −4.68 log^10 molar

SMILES: CN(C)CC1CCCCCC(Br)C1=O.O=C(O)C(=O)O (stereo not drawn) [NSC 130789]
- Mean GI50 [5]: −4.96 log^10 molar

SMILES: Nc1ncnc2c1ncn2[C@@H]1C=C(CO)[C@@H](O)[C@H]1O [NSC 316458, Neplanocin A]
- Mean GI50 [5]: −5.43 log^10 molar

SMILES: CNC(=S)NC(=S)N(C)C [NSC 622693]
- Mean GI50 [5]: −4.53 log^10 molar

SMILES: Cc1ccc(S(=O)(=O)N=NC=C2c3ccccc3N(O)c3ccccc32)cc1 [NSC 627891]
- Mean GI50 [5]: −5.43 log^10 molar

SMILES: O=C1N(c2ccc(Cl)cc2)C(=O)C2(SC=NN2Cc2ccccc2)N1c1ccc(Cl)cc1 (stereo not drawn) [NSC 630740]
- Mean GI50 [5]: −4.26 log^10 molar

SMILES: COc1ccc2[nH]c3c(C)c4cc[n+](COC(=O)c5ccccc5)cc4c(C)c3c2c1 [NSC 632620]
- Mean GI50 [5]: −6.52 log^10 molar

SMILES: C=C1C(OC(=O)/C=C/c2ccccc2)CC(OC(C)=O)C2(C)C1CC1CC(OC(C)=O)C(C)=C(C(OC(C)=O)C2OC(C)=O)C1(C)C (stereo not drawn) [NSC 636859, Cuspidatin C]
- Mean GI50 [5]: −4.46 log^10 molar

SMILES: CCCCC(=O)OC[n+]1ccc2c(C)c3[nH]c4ccc(OC)cc4c3c(C)c2c1.[I-] [NSC 637126]
- Mean GI50 [5]: −6.40 log^10 molar

SMILES: CCCCCCC(=O)OC[n+]1ccc2c(C)c3[nH]c4ccccc4c3c(C)c2c1 [NSC 637132]
- Mean GI50 [5]: −6.09 log^10 molar

SMILES: O=C(/C=C/c1ccc(Cl)c(Cl)c1)c1ccc(Cl)cc1Cl [NSC 640531]
- Mean GI50 [5]: −4.99 log^10 molar

SMILES: C#CCN(N=O)C(=O)NCCCC(NC(C)=O)C(=O)NCc1ccccc1 (stereo not drawn) [NSC 645583]
- Mean GI50 [5]: −4.17 log^10 molar

SMILES: O=C1/C(=C/C=C/c2ccccc2)CCC1CNc1ccccc1 (stereo not drawn) [NSC 661238]
- Mean GI50 [5]: −4.47 log^10 molar

SMILES: CSc1nc[nH]c1C(N)=S [NSC 684041]
- Mean GI50 [5]: −4.11 log^10 molar

SMILES: Cc1cc2[nH]c3c(C#N)c(-c4ccccc4)c(N=Nc4cccc(C(F)(F)F)c4)c(=O)n3c2cc1C [NSC 699959]
- Mean GI50 [5]: −4.53 log^10 molar
